Format in all cases: functional, cell-based
The test system of experiment [1] is HeLa. Nature of the experiment: Antiviral activity against wild type HIV1 in HeLa-JC53 cells. The settings on record: Homo sapiens.
Experiment [2] deals with HeLa. Briefly: Antiviral activity against HIV1 K103N-Y181C mutant in HeLa-JC53 cells.
Experiment [3] deals with HeLa. Briefly: Antiviral activity against HIV1 Y188L mutant in HeLa-JC53 cells.
The subject of experiment [4] is HeLa. Nature of the experiment: Cytotoxicity against human HeLa-JC53 cells.

Where only a bound is given, the exact number is not on record here.

The EC50 is the concentration giving half of the maximal effect. On to `CCc1ccc(-n2c(C)nnc2SCC(=O)Nc2ccc(C)cc2Cl)c2ccccc12`, for which the EC50 in the experiment with HeLa [1] stood at 1 nM; in the experiment with HeLa [2], 32 nM; with HeLa [3] it was 110 nM.
The matching figures for `Cc1cc(-n2c(C)nnc2SCC(=O)Nc2ccccc2Br)c2ccccc2c1C`: 0.5 nM, 31 nM and 97 nM.
For `Cc1ccc(-n2c(C)nnc2SCC(=O)Nc2ccccc2Br)c2ccccc12` the same measures were 0.6 nM, 14 nM and 69 nM.
The matching figures for `CCc1ccc(-n2c(C)nnc2SCC(=O)Nc2ccccc2Br)c2ccccc12`: 0.5 nM, 22 nM and 58 nM.
As to `Cc1cc(C)c2ccccc2c1-n1c(C)nnc1SCC(=O)Nc1ccc(S(N)(=O)=O)cc1Cl`, the figures for the EC50 in the experiment on HeLa [1] and with HeLa [3] were 0.1 nM and 4 nM, respectively. In addition, the Activity result in the experiment on HeLa [4] is “Not toxic”.
`O=C1Nc2ccc(Cl)cc2[C@@](C#CC2CC2)(C(F)(F)F)O1` [EFAVIRENZ]: the EC50 was 0.4 nM with HeLa [1], 11 nM in the experiment with HeLa [2] and 73 nM in the experiment on HeLa [3].
For `Cc1ccc(NC(=O)CSc2nnc(C)n2-c2ccc(Cl)c3ccccc23)c(Cl)c1` the same measures were 1 nM, 190 nM and 320 nM.
The matching figures for `Cc1cc(C)c2ccccc2c1-n1c(C)nnc1SCC(=O)Nc1ccccc1Br`: 1 nM, 70 nM and 89 nM.
For `Cc1nnc(SCC(=O)Nc2ccccc2Br)n1-c1ccc(Cl)c2ccccc12` the same measures were 0.8 nM, 130 nM and 200 nM.
As to `Cc1ccc2ccccc2c1-n1c(C)nnc1SCC(=O)Nc1ccccc1Br`, the values for the EC50 in the experiment on HeLa [1], with HeLa [2] and in the experiment with HeLa [3] were 1 nM, 65 nM and 210 nM, respectively.
For `Cc1ccc(NC(=O)CSc2nnc(C)n2-c2ccc(C)c3ccccc23)c(Cl)c1` the same measures were 1 nM, 16 nM and 100 nM.
For `COc1ccc(-n2c(C)nnc2SCC(=O)Nc2ccccc2Br)c2ccccc12` the same measures were 0.7 nM, 93 nM and 460 nM.
On to `Cc1ccc(NC(=O)CSc2nnc(C)n2-c2c(C)ccc3ccccc23)c(Cl)c1`, for which the EC50 is 1 nM with HeLa [1], 60 nM in the experiment with HeLa [2] and 200 nM with HeLa [3].
`Cc1ccc2c(C)ccc(-n3c(C)nnc3SCC(=O)Nc3ccc(S(N)(=O)=O)cc3Cl)c2c1`: the results for the EC50 in the experiment on HeLa [1] and in the experiment with HeLa [3] were 0.6 nM and 6 nM, respectively. In addition, in the experiment on HeLa [4], the Activity result was “Not toxic”.
With `Cc1ccc(NC(=O)CSc2nnc(C)n2-c2ccccc2)c(Br)c1`, the EC50 was 100 nM in the experiment with HeLa [1], 1300 nM in the experiment on HeLa [2] and over 10000 nM in the experiment on HeLa [3].
Consider `Cc1ccc2c(C)cc(C)c(-n3c(SCC(=O)Nc4ccc(S(N)(=O)=O)cc4Cl)nnc3C(F)(F)F)c2n1`, for which the EC50 turned out to be 1 nM in the experiment on HeLa [1] and 4 nM in the experiment on HeLa [3]. Besides, the Activity result with HeLa [4] was “Not toxic”.
Turning to `CN(C)c1ccc(-n2c(SCC(=O)Nc3ccc(S(N)(=O)=O)cc3Cl)nnc2C(F)(F)F)c2ccccc12`, the EC50 was 2 nM in the experiment with HeLa [1] and 7 nM in the experiment with HeLa [3]. Moreover, the Activity entry in the experiment with HeLa [4] was “Not toxic”.
For the compound `Cc1ccc(NC(=O)CSc2nnc(C)n2-c2cccc3ccccc23)c(Cl)c1`, the EC50 with HeLa [1] worked out at 4 nM; with HeLa [2], 54 nM; in the experiment with HeLa [3], 590 nM.
`COC(=O)c1ccc(NC(=O)CSc2nnc(C)n2-c2ccc(C)cc2)c(Cl)c1`: the EC50 is 0.4 nM in the experiment on HeLa [1] and 120 nM with HeLa [2].

The values are drawn from ChEMBL document CHEMBL1149511, “Tri-substituted triazoles as potent non-nucleoside inhibitors of the HIV-1 reverse transcriptase” (Bioorg Med Chem Lett, 2006).
